Assay [1] concerns MRSA-4. Briefly: Time-dependent killing assay. Format: cell-based, Methicillin-resistant S. aureus. To be noted: for time-kill outcome at 1 × and 2 × MIC: 1 × or 2 × MIC, initial reduction within 2 h, regrowth by 24 h; for nature of antibacterial effect (time-kill assays): MRSA-4. As for the experimental part:
An overnight culture of MRSA-4 was diluted 1:100 in fresh MHB and incubated at 37°C with shaking (200 rpm) until reaching mid-log phase (OD600 = 0.4–0.6). The culture was then adjusted to 1 × 10^6 CFU/mL and treated with AA, MA, or UA at concentrations of 1×, 2×, and 4 × MIC. 2 × MIC of vancomycin was used as a positive control, and an equivalent volume of DMSO served as the negative control. The cultures were incubated at 37°C with shaking (200 rpm) during the assay. At designated time points (0, 1, 2, 4, 8, and 24 h), samples were collected, serially diluted tenfold in sterile PBS, and 100 μL of appropriate dilutions were plated on LB agar. Plates were incubated at 37°C for 18–24 h, and viable bacteria were quantified. All experiments were performed in biological triplicates.
We next performed time-kill kinetics assays to characterize the time-dependent antibacterial effects of AA, MA, and UA against MRSA-4. Bacterial cultures were exposed to AA, MA, and UA at 1×, 2×, and 4 × their respective MICs, and viable CFU were counted at designated time points (0, 1, 2, 4, 8, and 24 h). As shown in the time-kill curves (Figure 1), treatment with 1 × or 2 × MIC of AA, MA, or UA led to an initial reduction in bacterial load within the first 2 h.

In another assay the test system is S. aureus ATCC25923. Briefly: SEM analysis, cell long axis. The assay is classed as cell-based, Staphylococcus aureus. To be noted: 2 × MIC, 2 h, mean ± SD, PBS control 0.52 ± 0.05. How it is done: (§1) Scanning electron microscopy (SEM) was used to observe the morphological changes in bacterial cells treated with the isolated compounds. S. aureus ATCC 25923 and MRSA-4 were grown in MHB to mid-log phase (OD600 = 0.4–0.6) as previously described. The bacteria cultures were treated with AA, MA, or UA at 2 × MIC for 2 h at 37°C with shaking at 150 rpm. Untreated cultures (PBS group) served as the growth control. After incubation, bacterial cells were harvested by centrifugation and washed three times with PBS (pH 7.2). Coverslips (8 mm diameter) were cleaned with absolute ethanol under ultrasonication, air-dried, immersed in 0.1% (w/v) chitosan solution (dissolved in 1% acetic acid) for 5 s, and air-dried again at room temperature ([Su et al., 2022]). A 25 μL aliquot of the washed bacterial suspension was added to each coverslip and allowed to adhere for 1 h at room temperature. Adhered cells were fixed with 1 mL of 2.5% (v/v) glutaraldehyde at 4°C overnight. Fixed samples were rinsed 2–3 times with PBS (5 min per rinse), then dehydrated through a graded ethanol series: 50, 70, and 90% ethanol (each once for 5 min), followed by 100% ethanol (three times for 5 min each). After dehydration, samples were air-dried overnight at room temperature. SEM imaging was performed using an EVO 10 scanning electron microscope (Zeiss, Jena, Germany). Cell long-axis statistical analysis was conducted using ImageJ software (Version 1.42q, National Institutes of Health, MD, USA).
(§2) Having established the antibacterial activity of AA, MA, and UA, we next examined their effects on bacterial morphology. We employed SEM to examine the alterations induced by these compounds in S. aureus ATCC25923 and MRSA-4. Bacterial cultures were treated with AA, MA, or UA at 2 × MIC for 2 h, while untreated (PBS group) cultures served as negative controls. […] In PBS groups, both S. aureus ATCC25923 and MRSA-4 maintained typical spherical morphology with smooth and intact surfaces.

The test system of assay [2] is MRSA-4. Briefly: SEM analysis, cell long axis. Format: cell-based, Methicillin-resistant S. aureus. The note with it: 2 × MIC, 2 h, mean ± SD, PBS control 0.53 ± 0.04. How it is done:
as §1, §2

The test system of assay [3] is MRSA-4. Nature of the assay: TEM analysis of septum formation. The note with it: 1 × MIC, 4 h. The assay is classed as cell-based, Methicillin-resistant S. aureus. As for the experimental part:
MRSA-4 was cultured in MHB to mid-log phase as described above. The cultures were then treated with AA, MA, or UA (at 1 × MIC) or with an equal volume of PBS (negative control) for 4 h at 37°C. After treatment, bacterial suspensions were collected by centrifugation at 13,000 × g for 3 min, and the resulting pellets were washed with PBS. Pellets were fixed in 2.5% glutaraldehyde prepared in 0.1 M cacodylate buffer (pH 7.2). Following fixation, samples were dehydrated in a graded ethanol series (30 to 100%), with 100% ethanol replaced three times. Samples were infiltrated with acetone/Epon-812 resin mixtures at ratios of 3:1, 1:1, and 1:3, then embedded in pure Epon-812 resin. Ultrathin sections (60–90 nm) were cut and placed on copper grids. The sections were stained with saturated uranyl acetate for 10–15 min, followed by lead citrate for 1–2 min. Structural and morphological changes in the bacterial cells were observed using a JEOL JEM-1400FLASH transmission electron microscope (JEOL, Japan).
We first evaluated the impact of AA, MA, and UA on septum formation in MRSA-4 cells using TEM. MRSA-4 cultures were treated with AA, MA, or UA at 1 × MIC for 4 h, with PBS-treated cells serving as the control. […] These abnormalities imply that AA, MA, and UA disrupt the septum formation process, which is essential for successful cell division.

For assay [4], the system named is MRSA-4. Briefly: SIM analysis of Z-ring assembly (FtsZ immunostaining). To be noted: 1 × MIC, 4 h. Format: cell-based, Methicillin-resistant S. aureus. As for the experimental part:
MRSA-4 was cultured in MHB at 37°C to mid-logarithmic phase and subsequently treated with AA, MA, or UA at concentration of 1 × MIC, or with PBS as a control, for 4 h at 37°C. Following treatment, cells were harvested by centrifugation, washed once with PBS, and fixed with 4% (w/v) paraformaldehyde in PBS for 15 min at room temperature. Fixed cells were then washed twice with PBS. The pellets were resuspended in 90 μL GTE buffer (50 mM glucose, 25 mM Tris–HCl, pH 8.0, 10 mM EDTA) containing 10 μL lysozyme (3 mg/mL) and incubated for 3 min at room temperature. The suspension was applied onto poly-L-lysine-coated glass slides and allowed to adhere. After removing excess liquid, the slides were blocked with PBS containing 2% (w/v) BSA and 0.1% (v/v) Tween-20 for 15 min. Slides were incubated overnight at 4°C with polyclonal rabbit anti-FtsZ primary antibody, followed by three washes with PBST (PBS containing 0.1% Tween-20). Alexa Fluor 488-conjugated goat anti-rabbit IgG as the secondary antibody was then applied and incubated for 1 h at room temperature in the dark. After washing, nuclei were stained with DAPI for 3–5 min, followed by 2–3 times PBS washes to remove excess stain. Coverslips were mounted with 50% (v/v) glycerol in PBS and sealed with nail polish. Z-ring structures were visualized using structured illumination microscopy (N-SIM S, Nikon, Tokyo, Japan).
Given that septum formation is orchestrated by the FtsZ-based Z-ring, we next examined whether AA, MA, and UA affect Z-ring assembly. Structured illumination microscopy (SIM) was employed to visualize FtsZ localization in MRSA-4 cells treated with each compound at 1 × MIC for 4 h.

On to `C[C@H]1[C@H](C)CC[C@]2(C(=O)O)CC[C@]3(C)C(=CC[C@@H]4[C@@]5(C)CC[C@H](O)C(C)(C)[C@@H]5CC[C@]43C)[C@H]12` [UA, ursolic acid], for which, in the assay with MRSA-4 [1], the “time-kill outcome at 1 × and 2 × MIC” value was “primarily bacteriostatic activity”; the “nature of antibacterial effect (time-kill assays)” value (“nature of antibacterial effect” for short) was “bacteriostatic”. The “reduction of viable bacterial counts” value in the assay on MRSA-4 [1] (4 × MIC, at/over 24 h) is at most 3 log10 CFU/mL. Moreover, in the assay on S. aureus ATCC25923, the “length of long axis of cells” value worked out at 0.75 ± 0.05 μm. Also, the “length of long axis of cells” value in the assay with MRSA-4 [2] is 0.69 ± 0.06 μm. In addition, the “septum formation (TEM)” value in the assay on MRSA-4 [3] was “incomplete, mislocalized, or absent septa”. Moreover, the “FtsZ localization / Z-ring formation (SIM)” value with MRSA-4 [4] is “aberrant FtsZ localization”.

Consider `CC1(C)CC[C@]2(C(=O)O)CC[C@]3(C)C(=CC[C@@H]4[C@@]5(C)C[C@@H](O)[C@H](O)C(C)(C)[C@@H]5CC[C@]43C)[C@@H]2C1` [MA, maslinic acid], for which, in the assay on MRSA-4 [1], the “time-kill outcome at 1 × and 2 × MIC” value is recorded as “primarily bacteriostatic activity”; the “nature of antibacterial effect” value is “bactericides”. Moreover, in the assay with MRSA-4 [1] (4 × MIC, at/over 24 h), the “reduction of viable bacterial counts” value is given as over 3 log10 CFU/mL. Moreover, the “length of long axis of cells” value in the assay on S. aureus ATCC25923 stood at 0.78 ± 0.07 μm. In addition, the “length of long axis of cells” value in the assay on MRSA-4 [2] amounted to 0.76 ± 0.10 μm. Also, the “septum formation (TEM)” value in the assay with MRSA-4 [3] is listed as “incomplete, mislocalized, or absent septa”. Further, in the assay on MRSA-4 [4], the “FtsZ localization / Z-ring formation (SIM)” value is “aberrant FtsZ localization”.

Take `C[C@H]1[C@H](C)CC[C@]2(C(=O)O)CC[C@]3(C)C(=CC[C@@H]4[C@@]5(C)C[C@@H](O)[C@H](O)[C@@](C)(CO)[C@@H]5CC[C@]43C)[C@H]12` [AA, asiatic acid]: in the assay with MRSA-4 [1], the “time-kill outcome at 1 × and 2 × MIC” value is “primarily bacteriostatic activity”; the “nature of antibacterial effect” value is given as “bactericides”. Further, the “bacterial counts (below the detection limit)” value in the assay on MRSA-4 [1] (4 × MIC) is reported as under 2 log10 CFU/mL. Besides, in the assay on MRSA-4 [1] (4 × MIC, within 2 h), the “reduction of viable bacterial counts” value is on record as over 3 log10 CFU/mL. Further, the “length of long axis of cells” value in the assay with S. aureus ATCC25923 is 0.78 ± 0.06 μm. Further, the “length of long axis of cells” value in the assay with MRSA-4 [2] is recorded as 0.75 ± 0.07 μm. The “septum formation (TEM)” value with MRSA-4 [3] is reported as “incomplete, mislocalized, or absent septa”. Moreover, in the assay with MRSA-4 [4], the “FtsZ localization / Z-ring formation (SIM)” value is reported as “aberrant FtsZ localization”.
